# Data as given in patent US20010046498A1, “Chimeric prostate-homing peptides with pro-apoptotic activity” (priority 2000, published 2001).
# Square brackets hold non-standard residues; d marks the D form. Ends that are not written are not given here. Peptide text beside a SMILES is read from it.
# Legend:
# [1] = test system: normal human dermal microvessel endothelial cells (DMECs); type: cell-based; set-up: dose or concentration left out as unconfirmed; settings: proliferation or cord formation
# [2] = test system: dermal microvessel endothelial cells; test: Mitochondrial morphology of proliferating DMECs (MitoTracker Red / DAPI); type: cell-based, human; settings: 60 μM peptide, 24 hours
# Method: Mitochondrial morphology of dermal microvessel endothelial cells was assessed in proliferating cells after treatment with 60 μM HPP-1, […]-GG-D(KLAKLAK)2 or untargeted D(KLAKLAK)2 as follows. Dermal microvessel endothelial cells were stained after 24 and 72 hours treatment with peptide by incubation for 30 min at 37° C. with 100 nM mitochondrial stain MitoTracker Red™ (Molecular Probes, Inc., Eugene Oreg.) and 500 nM of the nuclear stain DAPI (Molecular Probes, Inc.). Mitochondria were subsequently visualized using fluorescence microscopy (100×) under an inverted microscope using a triple wavelength filter set (Nikon).
# in vitro = type: cell-based; settings: human; monolayer at 100% confluency; scored at 72 hours; means of three independent experiments; read-out: LC50 DMEC Angiostatic
# Method: (§1) The effect of HPP-1 was assayed on normal human dermal microvessel endothelial cells (DMECs) under the angiogenic conditions of proliferation and cord formation. In addition, the effect of HPP-1 was assayed under the angiostatic condition of a monolayer maintained at 100% confluency (as described below).
# (§2) Briefly, dermal microvessel endothelial cells (DMECs) were grown in CADMEC Growth Media™ (Cell Applications, Inc.; San Diego, Calif.). Dermal microvessel endothelial cells were then cultured under three experimental conditions: proliferation, 30% confluency in a growth media supplemented with 500 ng/ml human recombinant vascular endothelial growth factor (VEGF; Pharmingen); no proliferation, 100% confluency in media formulated to maintain a monolayer; and cord formation, 60% confluency (required for induction) in media formulated to induce cord formation. The KS1767 and MDA-MB-435 cells were cultured as described in Arap et al., supra, 1998; Hernier et al., supra, 1994).
# (§3) Percent viability and LC50 (Table 1) were determined by apoptotic morphology as described in Ellerby et al., J. Neurosci. 17:6165-6178 (1997). For the percent viability assays, dermal microvessel endothelial cells were treated with 60 μM HPP-1 or control peptide D(KLAKLAK)2. At the indicated time points, cell culture medium was aspirated from adherent cells, and the cells were gently washed once with PBS at 37° C. Subsequently, a 20-fold dilution of the dye mixture (100 μg/ml acridine orange and 100 μg/ml ethidium bromide) in PBS was gently pipetted on the cells, which were viewed on an inverted microscope (Nikon TE 300). […] At least 500 cells were scored for a given time point in each experiment. Percent viability was calculated relative to untreated controls. The LC50 for monolayer, proliferation ([…]), and cord formation were scored at 72 hours.
# [3] = test system: caspase-3 processing in rat liver mitochondria suspended in normal cytosolic extract; test: Mitochondria-dependent cell-free apoptosis (caspase-3 processing immunoblot); type: biochemical; settings: 100 μM peptide, 2 hours, in the presence of mitochondria
# Method: The D(KLAKLAK)2 peptide was assayed for the ability to activate mitochondria-dependent apoptosis in a cell-free system composed of normal mitochondria suspended in normal cytosolic extract (Ellerby et al., J. Neurosci. 17:6165-6178 (1997)).
# The cell-free apoptosis assays were performed essentially as follows. The cell-free systems were reconstituted as described in Ellerby et al., supra, 1997, and, for mitochondria-dependent reactions, rat liver mitochondria were suspended in normal (non-apoptotic) cytosolic extract prepared from dermal microvessel endothelial cells. After adding peptides at a concentration of 100 μM and incubating for 2 hours at 30° C. or 37° C., mitochondria were removed by centrifugation, and the supernatant analyzed by SDS/PAGE immunoblotting on a 12% gel (Biorad; Hercules, Calif.). Proteins were transferred to PVDF membranes (Biorad) and incubated with anti-caspase-3 antibody (Santa Cruz Biotechnology; Santa Cruz, Calif.), followed by ECL detection (Amersham; Arlington Heights, Ill.).
# rat liver mitochondria = test: Mitochondrial swelling assay (optical absorbance at 520 nm); type: biochemical
# Method: Mitochondrial swelling assays were performed as follows. Briefly, rat liver mitochondria were prepared as described in Ellerby et al., J. Neurosci. 17:6165-6178 (1997). Peptides were synthesized at higher than 90% purity by HPLC (DLSLARLATARLAI (SEQ ID NO: 204), Coast Scientific, Inc., San Diego, Calif.; all other peptides, AnaSpec, Inc.). Mitochondria were treated with a concentration of 10 μM D(KLAKLAK)2, 10 μM DLSLARLATARLAI negative control peptide (SEQ ID NO: 204), or 200 μM CA^+2 as a positive control. Peptides were added to mitochondria in a cuvette, and swelling was quantified by measuring the optical absorbance at 520 nm.
# [4] = Cytotoxicity to eukaryotic cells (lethal concentration for 50% of a cell monolayer); type: cell-based; settings: human; lethal concentration required to kill 50% of a cell monolayer; read-out: concentration required to kill eukaryotic cells (LC50)
# Method: (§4) Mild swelling was evident at a concentration of 3 μM, two orders of magnitude less than the concentration required to kill eukaryotic cells (approximately 300 μM), as measured by the lethal concentration required to kill 50% of a cell monolayer (LC50; Table 1).
# as §3
# normal mouse prostate = test: Prostate-selective apoptosis (TUNEL staining); type: in vivo; settings: single dose of 250 μg peptide/mouse; 24 hours
# Method: The ability of the SMSIARL peptide (SEQ ID NO: 207) to deliver a pro-apoptotic peptide, D(KLAKLAK)2, to the prostate was analyzed. Briefly, SMSIARL-GG-D(KLAKLAK)2 chimeric peptide or control material was administered as a single dose of 250 μg peptide/mouse, and TUNEL staining was performed on tissues obtained 24 hours later.
# [5] = test system: prostate cancer in TRAMP mice; test: Treatment of TRAMP mice (transgenic prostate cancer); type: in vivo; settings: 250 μg/dose; 10 mice per group
# Method: TRAMP mice develop prostate cancer under the influence of a transgene as described in Gingrich et al., supra, 1996. SMSIARL-GG-D(KLAKLAK)2 chimeric peptide was assayed for the ability to suppress cancer development in the TRAMP mice. Treatment was initiated at 12 weeks of age with mice (10 per group) receiving SMSIARL-GG-D(KLAKLAK)2 peptide or control peptide at 250 μg/dose every other week for a total of 10 doses. Four mice, which had no visible tumor, were eliminated from the SMSIARL-GG-D(KLAKLAK)2 group after dying within minutes after the injection.
# [6] = test system: normal human dermal microvessel endothelial cells (DMECs); test: in vitro; type: cell-based; settings: controls and alternative prototype; data not shown
# Method: as §1, §2, §3
# [7] = test system: breast carcinoma xenografts; test: Competition of phage homing by co-injected free peptide
# eukaryotic cells = test: Cytotoxicity to eukaryotic cells (lethal concentration for 50% of a cell monolayer); type: cell-based
# Method: as §4, §3
# [8] = test system: human 435 breast carcinoma tumor; test: In vivo targeting of RGD phage to breast tumor; set-up: species or system nude mice; settings: coinjection of 500 μg free peptide
# Method: Human 435 breast carcinoma cells were inoculated into the mammary fat pad of nude mice. When the tumors attained a diameter of about 1 cm, phage expressing a specific RGD-containing peptide were administered to the tumor bearing mouse. Similar results to those discussed below also were obtained with nude mice bearing tumors formed by implantation of human melanoma C8161 cells or by implantation of mouse B16 melanoma cells.
# 1×10^9 phage expressing the RGD-containing peptide, […] (SEQ ID NO: 1; see, Koivunen et al., supra, 1995) or control (insertless) phage were injected intravenously (iv) into the mice and allowed to circulate for 4 min. The mice then were snap frozen or perfused through the heart while under anesthesia, and various organs, including tumor, brain and kidney, were removed and the phage present in the organs was quantitated (see U.S. Pat. No. 5,622,699; Pasqualini and Ruoslahti, supra, 1996).
# bacteria = settings: Javadpour et al. 1996; cited from earlier work
# prostate tissue = test: Prostate homing of SMSIARL phage after intravenous injection; type: in vivo, mice; settings: coinjection
# Text: Using in vivo screening of a heptapeptide phage library, a prostate-homing peptide has been identified that concentrates in the prostate 35-fold more than in various other tissues.
# prostate = test: In vivo panning of X7 phage library, prostate versus brain; set-up: species or system mice; settings: phage displayed peptide
# Method: An X7 library was injected into mice, and sequences isolated that were preferentially found in prostate as compared to brain as described in WO 99/46284.
compound,measurement,setting,value
CC(C)C[C@@H](NC(=O)[C@H](N)CCCCN)C(=O)N[C@H](C)C(=O)N[C@H](CCCCN)C(=O)N[C@H](CC(C)C)C(=O)N[C@H](C)C(=O)N[C@H](CCCCN)C(=O)N[C@H](CCCCN)C(=O)N[C@H](CC(C)C)C(=O)N[C@H](C)C(=O)N[C@H](CCCCN)C(=O)N[C@H](CC(C)C)C(=O)N[C@H](C)C(=O)N[C@H](CCCCN)C(=O)O [D(KLAKLAK)2],percent viability with time relative to untreated controls,[1],negligible loss in viability
same,mitochondrial morphology,[2],remained morphologically normal
same,CC50 at 72 h,in vitro,492 µM
same,caspase-3 processing in cell-free system,[3],characteristic caspase-3 processing the active protease was observed
same,mitochondrial swelling,rat liver mitochondria; 3 μM peptide,Mild swelling
same,mitochondrial swelling,rat liver mitochondria; 10 μM peptide,marked mitochondrial swelling
same,CC50 at 72 h,[4],~300 µM
CC[C@H](C)[C@H](NC(=O)[C@H](CO)NC(=O)[C@H](CCSC)NC(=O)[C@@H](N)CO)C(=O)N[C@@H](C)C(=O)N[C@@H](CCCNC(=N)N)C(=O)N[C@@H](CC(C)C)C(=O)NCC(=O)NCC(=O)N[C@H](CCCCN)C(=O)N[C@H](CC(C)C)C(=O)N[C@H](C)C(=O)N[C@H](CCCCN)C(=O)N[C@H](CC(C)C)C(=O)N[C@H](C)C(=O)N[C@H](CCCCN)C(=O)N[C@H](CCCCN)C(=O)N[C@H](CC(C)C)C(=O)N[C@H](C)C(=O)N[C@H](CCCCN)C(=O)N[C@H](CC(C)C)C(=O)N[C@H](C)C(=O)N[C@H](CCCCN)C(=O)O [SMSIARL-GG-D(KLAKLAK)2] (H-SMSIARLGG[dK][dL][dA][dK][dL][dA][dK][dK][dL][dA][dK][dL][dA][dK]-OH),"apoptosis in other tissues such as testis, kidney or brain (TUNEL)",normal mouse prostate,no evidence of increased apoptosis
same,mice dying within minutes after the injection,[5],Four
CARAC-GG-D(KLAKLAK)2 [reference compound],"effect on viability of dermal microvessel endothelial cells, compared with other peptide",[6],results similar to D(KLAKLAK) 2
CGRNC-GG-D(KLAKLAK)2 [reference compound],"effect on viability of dermal microvessel endothelial cells, compared with other peptide",[6],results similar to D(KLAKLAK) 2
CNGRC (not fully specified; cysteine pairing not given here),effect of co-injected peptide on homing of […] phage,[7],did not inhibit
same,effect of co-injected peptide on accumulation of NGR phage in tumor,[7]; phage expressing CNGRCVSGCAGRC,inhibited
DLSLARLATARLAI [non-α-helix forming negative control peptide],caspase-3 processing in cell-free system,[3],inactive
same,mitochondrial swelling,rat liver mitochondria; 10 μM peptide,did not induce mitochondrial swelling
same,lethality to eukaryotic cells,eukaryotic cells,not lethal
GRGESP,reduction of phage in the tumor by coinjected free peptide,[8],essentially had no effect
KLAKLAKKLAKLAK [synthetic antimicrobial 14-mer of Javadpour et al],concentration that kills bacteria relative to concentration required to kill eukaryotic cells,bacteria,two orders of magnitude lower
SMSIARL [prostate homing peptide],effect of coinjected synthetic peptide on prostate-selective phage homing,prostate tissue,inhibited the prostate-selective homing of phage
same,enrichment in prostate as compared to brain,prostate,34 fold
VSFLEYR [prostate homing peptide],enrichment in prostate as compared to brain,prostate,17 fold
